Patent publication US9549932B2, “2-(morpholin-4-yl)-1,7-naphthyridines” (BAYER PHARMA AKTIENGESELLSCHAFT, priority 2014, dated 2017)

Target: full-length human ATR protein (Homo sapiens (Human), UniProt Q13535)
Test: Binding assay ATR (TR-FRET tracer displacement)
Conditions: tracer A, TR-FRET; read-out: ATR binding (tracer A) IC50
Method in brief: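 Full-length human GST-ATR co-purified with ATRIP, pre-complexed 30 min at 22 °C with anti-GST-Tb antibody, then pre-bound with compound 10 min. Tracer A or B added (2 µl of 100 nM solution), 30 min at 22 °C.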

Sequence of full-length human ATR protein (Q13535 other isoform, or with tags, fused parts or gaps): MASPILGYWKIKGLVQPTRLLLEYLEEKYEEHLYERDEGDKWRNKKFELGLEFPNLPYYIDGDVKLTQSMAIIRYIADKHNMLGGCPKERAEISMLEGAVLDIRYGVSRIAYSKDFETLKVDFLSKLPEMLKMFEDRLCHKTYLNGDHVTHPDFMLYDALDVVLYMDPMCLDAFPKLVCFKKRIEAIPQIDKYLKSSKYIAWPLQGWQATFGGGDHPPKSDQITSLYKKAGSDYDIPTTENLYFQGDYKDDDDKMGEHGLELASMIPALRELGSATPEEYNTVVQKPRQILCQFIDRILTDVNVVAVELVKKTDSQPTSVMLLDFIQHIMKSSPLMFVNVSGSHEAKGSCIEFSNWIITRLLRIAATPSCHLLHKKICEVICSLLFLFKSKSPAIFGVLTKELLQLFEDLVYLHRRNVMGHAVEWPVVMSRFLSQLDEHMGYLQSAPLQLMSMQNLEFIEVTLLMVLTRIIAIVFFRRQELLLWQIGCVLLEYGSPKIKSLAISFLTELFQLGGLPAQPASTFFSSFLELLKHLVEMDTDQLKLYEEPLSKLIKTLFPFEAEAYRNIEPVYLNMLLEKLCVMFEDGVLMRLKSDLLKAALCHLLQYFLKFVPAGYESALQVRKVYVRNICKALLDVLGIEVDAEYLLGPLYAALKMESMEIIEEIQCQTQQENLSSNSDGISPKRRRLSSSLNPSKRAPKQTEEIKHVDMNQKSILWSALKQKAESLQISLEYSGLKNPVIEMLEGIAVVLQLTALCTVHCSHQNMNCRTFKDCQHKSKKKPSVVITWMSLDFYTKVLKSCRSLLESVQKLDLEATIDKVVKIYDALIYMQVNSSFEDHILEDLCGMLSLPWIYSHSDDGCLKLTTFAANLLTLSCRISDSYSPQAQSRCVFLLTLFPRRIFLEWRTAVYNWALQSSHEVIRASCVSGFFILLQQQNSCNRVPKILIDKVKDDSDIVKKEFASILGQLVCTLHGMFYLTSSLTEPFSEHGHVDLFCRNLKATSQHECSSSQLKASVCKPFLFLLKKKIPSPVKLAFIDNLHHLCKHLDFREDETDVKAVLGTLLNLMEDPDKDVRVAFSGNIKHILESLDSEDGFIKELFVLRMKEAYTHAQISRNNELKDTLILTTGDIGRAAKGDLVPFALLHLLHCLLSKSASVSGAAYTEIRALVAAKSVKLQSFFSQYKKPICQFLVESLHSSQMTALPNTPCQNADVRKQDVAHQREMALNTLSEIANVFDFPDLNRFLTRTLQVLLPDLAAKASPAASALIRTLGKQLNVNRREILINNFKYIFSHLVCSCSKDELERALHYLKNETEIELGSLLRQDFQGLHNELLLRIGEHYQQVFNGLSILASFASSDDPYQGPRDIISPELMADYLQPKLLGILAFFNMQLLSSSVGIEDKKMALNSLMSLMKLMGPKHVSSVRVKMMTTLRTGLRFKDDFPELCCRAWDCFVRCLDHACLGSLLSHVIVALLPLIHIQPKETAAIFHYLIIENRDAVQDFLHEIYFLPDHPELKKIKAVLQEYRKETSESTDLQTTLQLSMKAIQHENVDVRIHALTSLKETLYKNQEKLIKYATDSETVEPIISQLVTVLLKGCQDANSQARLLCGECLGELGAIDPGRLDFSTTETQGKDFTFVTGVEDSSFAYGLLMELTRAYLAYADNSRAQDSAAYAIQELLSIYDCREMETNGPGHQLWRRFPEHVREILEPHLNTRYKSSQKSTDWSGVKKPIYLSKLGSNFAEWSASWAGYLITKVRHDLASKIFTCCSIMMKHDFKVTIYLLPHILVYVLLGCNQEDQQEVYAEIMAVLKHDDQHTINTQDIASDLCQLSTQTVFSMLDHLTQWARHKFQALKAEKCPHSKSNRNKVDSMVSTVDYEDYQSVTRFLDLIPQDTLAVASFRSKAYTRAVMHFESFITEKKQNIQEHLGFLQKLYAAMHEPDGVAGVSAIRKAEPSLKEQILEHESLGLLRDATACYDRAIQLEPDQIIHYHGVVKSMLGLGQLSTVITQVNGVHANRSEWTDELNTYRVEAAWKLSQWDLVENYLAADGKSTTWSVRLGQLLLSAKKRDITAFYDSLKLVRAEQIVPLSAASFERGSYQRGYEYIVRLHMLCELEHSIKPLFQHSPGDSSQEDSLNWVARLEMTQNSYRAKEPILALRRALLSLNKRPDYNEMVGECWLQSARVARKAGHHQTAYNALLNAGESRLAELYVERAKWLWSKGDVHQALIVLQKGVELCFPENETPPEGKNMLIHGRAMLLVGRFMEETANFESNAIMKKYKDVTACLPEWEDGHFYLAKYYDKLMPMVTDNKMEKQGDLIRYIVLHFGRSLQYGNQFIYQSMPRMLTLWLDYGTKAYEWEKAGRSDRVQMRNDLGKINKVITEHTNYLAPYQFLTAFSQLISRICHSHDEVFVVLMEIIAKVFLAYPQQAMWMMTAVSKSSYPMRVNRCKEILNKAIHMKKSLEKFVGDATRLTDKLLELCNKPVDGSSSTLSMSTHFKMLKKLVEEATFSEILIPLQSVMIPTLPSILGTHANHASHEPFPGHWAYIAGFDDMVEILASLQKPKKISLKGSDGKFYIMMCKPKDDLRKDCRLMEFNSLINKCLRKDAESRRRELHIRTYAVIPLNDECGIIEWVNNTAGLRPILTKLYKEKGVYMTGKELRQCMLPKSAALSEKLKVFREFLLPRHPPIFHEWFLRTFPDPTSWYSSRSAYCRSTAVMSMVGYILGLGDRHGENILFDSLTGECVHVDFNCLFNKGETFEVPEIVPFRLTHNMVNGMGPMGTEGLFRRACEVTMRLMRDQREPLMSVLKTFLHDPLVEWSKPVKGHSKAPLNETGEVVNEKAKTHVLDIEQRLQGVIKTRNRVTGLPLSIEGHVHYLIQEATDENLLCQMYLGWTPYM
Sequence of full-length human ATR protein (Q8WXE1 other isoform, or with tags, fused parts or gaps partner): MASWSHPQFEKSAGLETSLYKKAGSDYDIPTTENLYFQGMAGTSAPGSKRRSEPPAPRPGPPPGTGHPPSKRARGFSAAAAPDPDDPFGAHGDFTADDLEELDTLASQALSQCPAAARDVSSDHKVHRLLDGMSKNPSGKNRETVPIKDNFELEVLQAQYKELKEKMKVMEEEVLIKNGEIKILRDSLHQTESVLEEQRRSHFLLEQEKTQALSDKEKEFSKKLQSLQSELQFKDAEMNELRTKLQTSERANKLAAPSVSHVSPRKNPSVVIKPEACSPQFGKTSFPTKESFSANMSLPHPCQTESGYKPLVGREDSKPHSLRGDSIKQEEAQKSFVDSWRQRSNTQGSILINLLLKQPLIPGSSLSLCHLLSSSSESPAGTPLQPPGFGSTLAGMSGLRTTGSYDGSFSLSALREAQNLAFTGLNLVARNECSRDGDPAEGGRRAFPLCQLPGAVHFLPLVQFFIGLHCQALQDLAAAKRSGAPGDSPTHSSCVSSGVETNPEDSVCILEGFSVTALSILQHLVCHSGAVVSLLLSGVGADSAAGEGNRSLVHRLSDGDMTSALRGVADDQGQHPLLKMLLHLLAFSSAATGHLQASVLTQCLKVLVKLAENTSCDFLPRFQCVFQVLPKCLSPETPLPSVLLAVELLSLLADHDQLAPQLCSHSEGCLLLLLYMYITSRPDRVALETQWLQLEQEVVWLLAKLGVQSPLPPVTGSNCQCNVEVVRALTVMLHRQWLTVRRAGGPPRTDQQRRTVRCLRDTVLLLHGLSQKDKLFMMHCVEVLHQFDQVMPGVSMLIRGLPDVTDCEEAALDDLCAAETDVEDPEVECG

How did the IC50 turn out when Cc1cc(COc2cc(N3CCOCC3)nc3c(-c4ccn[nH]4)nccc23)on1 [Example 48, 4-[(3-methyl-1,2-oxazol-5-yl)methoxy]-2-(morpholin-4-yl)-8-(1H-pyrazol-5-yl)-1,7-naphthyridine] was run?
The IC50 was 161 nM.

With CS(=O)(=O)c1ccc(-c2cc(N3CCOCC3)nc3c(-c4cc[nH]n4)nccc23)cc1 [Example 7, 4-(4-methanesulphonylphenyl)-2-(morpholin-4-yl)-8-(1H-pyrazol-3-yl)-[1,7]naphthyridine] as the compound, how does the IC50 read?
Its IC50 is 58.7 nM.

Which IC50 does the source give for Cc1ccccc1-c1cc(N2CCOCC2)nc2c(-c3ccn[nH]3)nccc12 [Example 318, 4-(2-methylphenyl)-2-(morpholin-4-yl)-8-(1H-pyrazol-5-yl)-1,7-naphthyridine] here?
Its IC50 is 30.6 nM.

Which IC50 does the source give for Cc1cc(-c2cc(N3CCOC[C@H]3C)nc3c(-c4ccn[nH]4)nccc23)cnc1C [Example 232, 4-(5,6-dimethylpyridin-3-yl)-2-[(3R)-3-methylmorpholin-4-yl]-8-(1H-pyrazol-5-yl)-1,7-naphthyridine] here?
Its IC50 is 39.1 nM.

Which IC50 does the source give for Oc1ccc(-c2cc(N3CCOCC3)nc3c(-c4ccn[nH]4)nccc23)cn1 [Example 390, 5-[2-(morpholin-4-yl)-8-(1H-pyrazol-5-yl)-1,7-naphthyridin-4-yl]pyridin-2-ol] here?
Its IC50 is 663 nM.

How did the IC50 turn out when C[C@@H]1COCCN1c1cc(C2CCCN(C)C2)c2ccnc(-c3ccn[nH]3)c2n1 (stereo partly drawn) [Example 244, 2-[(3R)-3-methylmorpholin-4-yl]-4-[1-methylpiperidin-3-yl]-8-(1H-pyrazol-5-yl)-1,7-naphthyridine] was run?
Its IC50 is 159 nM.

How did the IC50 turn out when C[C@@H]1COCCN1c1cc(-c2ccn(CC(C)(C)O)n2)c2ccnc(-c3ccn[nH]3)c2n1 [Example 161, 2-methyl-1-(3-{2-[(3R)-3-methylmorpholin-4-yl]-8-(1H-pyrazol-5-yl)-1,7-naphthyridin-4-yl}-1H-pyrazol-1-yl)propan-2-ol] was run?
The IC50 was 62.6 nM.

Which IC50 does the source give for Clc1ccc(-c2cc(N3CCOCC3)nc3c(-c4ccn[nH]4)nccc23)s1 [Example 299, 4-(5-chlorothiophen-2-yl)-2-(morpholin-4-yl)-8-(1H-pyrazol-5-yl)-1,7-naphthyridine] here?
The IC50 was 55.2 nM.

How did the IC50 turn out when CCS(=O)(CC)=Nc1cc(N2CCOC[C@H]2C)nc2c(-c3ccn[nH]3)nccc12 [Example 126, 4-{[diethyl(oxido)-λ^6-sulfanylidene]amino}-2-[(3R)-3-methylmorpholin-4-yl]-8-(1H-pyrazol-5-yl)-1,7-naphthyridine] was run?
The IC50 was 21.5 nM.

C[C@@H]1COCCN1c1cc(-c2cc(S(C)(=O)=O)ccc2F)c2ccnc(-c3ccn[nH]3)c2n1 [Example 150, 4-[2-fluoro-5-(methylsulfonyl)phenyl]-2-[(3R)-3-methylmorpholin-4-yl]-8-(1H-pyrazol-5-yl)-1,7-naphthyridine] was tested. Which IC50 did it give?
Its IC50 is 50.3 nM.

With C[C@@H]1COCCN1c1cc(-c2ccccc2N)c2ccnc(-c3ccn[nH]3)c2n1 [Example 71, 2-{2-[(3R)-3-methylmorpholin-4-yl]-8-(1H-pyrazol-5-yl)-1,7-naphthyridin-4-yl]aniline] as the compound, how does the IC50 read?
The IC50 was 5.65 nM.

With CN(c1cc(N2CCOCC2)nc2c(-c3ccn[nH]3)nccc12)C1CC1 [Example 435, N-cyclopropyl-N-methyl-2-(morpholin-4-yl)-8-(1H-pyrazol-5-yl)-1,7-naphthyridin-4-amine] as the compound, how does the IC50 read?
Its IC50 is 65.1 nM.

With C[C@@H]1COCCN1c1cc(-c2ccnn2C2COC2)c2ccnc(-c3ccn[nH]3)c2n1 [Example 133, 2-[(3R)-3-methylmorpholin-4-yl]-4-[1-(oxetan-3-yl)-1H-pyrazol-5-yl]-8-(1H-pyrazol-5-yl)-1,7-naphthyridine] as the compound, how does the IC50 read?
The IC50 was 27 nM.

Which IC50 does the source give for CC(C)Oc1cc(N2CCOC[C@@H]2C)nc2c(-c3cc[nH]n3)nccc12 [Example 67, 4-isopropoxy-2-((S)-3-methylmorpholin-4-yl)-8-(1H-pyrazol-3-yl)-[1,7]naphthyridine] here?
Its IC50 is 1000 nM.

With CCCN(C)c1cc(N2CCOCC2)nc2c(-c3ccn[nH]3)nccc12 [Example 412, N-methyl-2-(morpholin-4-yl)-N-propyl-8-(1H-pyrazol-5-yl)-1,7-naphthyridin-4-amine] as the compound, how does the IC50 read?
Its IC50 is 162 nM.

c1c[nH]c(-c2cc(N3CCOCC3)nc3c(-c4ccn[nH]4)nccc23)c1 [Example 211, 2-(morpholin-4-yl)-8-(1H-pyrazol-5-yl)-4-(1H-pyrrol-2-yl)-1,7-naphthyridine] was tested. Which IC50 did it give?
Its IC50 is 547 nM.

Which IC50 does the source give for c1csc(-c2cc(N3CCOCC3)nc3c(-c4ccn[nH]4)nccc23)c1 [Example 371, 2-(morpholin-4-yl)-8-(1H-pyrazol-5-yl)-4-(thiophen-2-yl)-1,7-naphthyridine] here?
Its IC50 is 122 nM.

With C[C@@H]1COCCN1c1cc(-c2ccc(F)cc2N)c2ccnc(-c3ccn[nH]3)c2n1 [Example 131, 5-fluoro-2-{2-[(3R)-3-methylmorpholin-4-yl]-8-(1H-pyrazol-5-yl)-1,7-naphthyridin-4-yl}aniline] as the compound, how does the IC50 read?
The IC50 was 23.1 nM.

COc1ncccc1-c1cc(N2CCOCC2)nc2c(-c3ccn[nH]3)nccc12 [Example 362, 4-(2-methoxypyridin-3-yl)-2-(morpholin-4-yl)-8-(1H-pyrazol-5-yl)-1,7-naphthyridine] was tested. Which IC50 did it give?
The IC50 was 295 nM.

For C[C@@H]1COCCN1c1cc(-c2cccnc2O)c2ccnc(-c3ccn[nH]3)c2n1 [Example 167, 3-{2-[(3R)-3-methylmorpholin-4-yl]-8-(1H-pyrazol-5-yl)-1,7-naphthyridin-4-yl}pyridin-2-ol], which IC50 is on record?
The IC50 was 408 nM.

With c1cc(-c2cc(N3CCOCC3)nc3c(-c4ccn[nH]4)nccc23)ccn1 [Example 221, 2-(morpholin-4-yl)-8-(1H-pyrazol-5-yl)-4-(pyridin-4-yl)-1,7-naphthyridine] as the compound, how does the IC50 read?
Its IC50 is 196 nM.

Which IC50 does the source give for c1ccc2sc(-c3cc(N4CCOCC4)nc4c(-c5ccn[nH]5)nccc34)cc2c1 [Example 347, 4-(1-benzothiophen-2-yl)-2-(morpholin-4-yl)-8-(1H-pyrazol-5-yl)-1,7-naphthyridine] here?
The IC50 was 241 nM.

Which IC50 does the source give for C[C@@H]1COCCN1c1cc(OCCCN)c2ccnc(-c3ccn[nH]3)c2n1 [Example 193, 3-({2-[(3R)-3-methylmorpholin-4-yl]-8-(1H-pyrazol-5-yl)-1,7-naphthyridin-4-yl}oxy)propan-1-amine] here?
Its IC50 is 245 nM.

Which IC50 does the source give for C[C@@H]1COCCN1c1cc(C2=CCNCC2)c2ccnc(-c3ccn[nH]3)c2n1 [Example 245, 2-[(3R)-3-methylmorpholin-4-yl]-8-(1H-pyrazol-5-yl)-4-(1,2,3,6-tetrahydropyridin-4-yl)-1,7-naphthyridine] here?
The IC50 was 32 nM.

With CCC(O)(CC)c1cc(N2CCOC[C@H]2C)nc2c(-c3ccn[nH]3)nccc12 [Example 129, 3-{2-[(3R)-3-methylmorpholin-4-yl]-8-(1H-pyrazol-5-yl)-1,7-naphthyridin-4-yl}pentan-3-ol] as the compound, how does the IC50 read?
The IC50 was 35.3 nM.

With CC(C)Nc1cc(N2CCOCC2)nc2c(-c3ccn[nH]3)nccc12 [Example 208, 2-(morpholin-4-yl)-N-(propan-2-yl)-8-(1H-pyrazol-5-yl)-1,7-naphthyridin-4-amine] as the compound, how does the IC50 read?
Its IC50 is 1160 nM.

For C[C@@H]1COCCN1c1cc(N2CCN(S(C)(=O)=O)CC2)c2ccnc(-c3ccn[nH]3)c2n1 [Example 82, 2-[(3R)-3-methylmorpholin-4-yl]-4-[4-(methylsulfonyl)piperazin-1-yl]-8-(1H-pyrazol-5-yl)-1,7-naphthyridine], which IC50 is on record?
The IC50 was 4.9 nM.

How did the IC50 turn out when C[C@H]1CN(c2cc(N3CCOCC3)nc3c(-c4ccn[nH]4)nccc23)CCO1 [Example 170, 4-[(2S)-2-methylmorpholin-4-yl]-2-(morpholin-4-yl)-8-(1H-pyrazol-5-yl)-1,7-naphthyridine] was run?
The IC50 was 168 nM.

O=S(=O)(c1ccccc1)n1c(-c2cc(N3CCOCC3)nc3c(-c4ccn[nH]4)nccc23)cc2ccccc21 [Example 355, 2-(morpholin-4-yl)-4-[1-(phenylsulfonyl)-1H-indol-2-yl]-8-(1H-pyrazol-5-yl)-1,7-naphthyridine] was tested. Which IC50 did it give?
Its IC50 is 484 nM.

C[C@@H]1COCCN1c1cc(-c2cnn(C)c2)c2ccnc(-c3ccn[nH]3)c2n1 [Example 248, 2-[(3R)-3-methylmorpholin-4-yl]-4-(1-methyl-1H-pyrazol-4-yl)-8-(1H-pyrazol-5-yl)-1,7-naphthyridine] was tested. Which IC50 did it give?
Its IC50 is 24.1 nM.

CS(=N)(=O)CCCOc1cc(N2CCOCC2)nc2c(-c3ccn[nH]3)nccc12 (centres unmarked) [Example 42, 4-[3-(S-methylsulfonimidoyl)propoxy]-2-(morpholin-4-yl)-8-(1H-pyrazol-5-yl)-1,7-naphthyridine] was tested. Which IC50 did it give?
The IC50 was 484 nM.

CS(=O)(=O)c1cccc(-c2cc(N3CCOCC3)nc3c(-c4cc[nH]n4)nccc23)c1 [Example 15, 4-(3-methanesulphonylphenyl)-2-(morpholin-4-yl)-8-(1H-pyrazol-3-yl)-[1,7]naphthyridine] was tested. Which IC50 did it give?
Its IC50 is 163 nM.

How did the IC50 turn out when C[C@@H]1COCCN1c1cc(-c2cnn(C(C)(C)C)c2)c2ccnc(-c3ccn[nH]3)c2n1 [Example 257, 4-(1-tert-butyl-1H-pyrazol-4-yl)-2-[(3R)-3-methylmorpholin-4-yl]-8-(1H-pyrazol-5-yl)-1,7-naphthyridine] was run?
The IC50 was 58.8 nM.

How did the IC50 turn out when C[C@@H]1COCCN1c1cc(OC(F)F)c2ccnc(-c3ccn[nH]3)c2n1 [Example 172, 4-(difluoromethoxy)-2-[(3R)-3-methylmorpholin-4-yl]-8-(1H-pyrazol-5-yl)-1,7-naphthyridine] was run?
The IC50 was 82.8 nM.

For Cc1cc(-c2cc(N3CCOCC3)nc3c(-c4ccn[nH]4)nccc23)cc(C)c1O [Example 311, 2,6-dimethyl-4-[2-(morpholin-4-yl)-8-(1H-pyrazol-5-yl)-1,7-naphthyridin-4-yl]phenol], which IC50 is on record?
Its IC50 is 376 nM.

For c1cc(-c2nccc3c(-c4cnc(NC5CC5)nc4)cc(N4CCOCC4)nc23)[nH]n1 [Example 396, N-cyclopropyl-5-[2-(morpholin-4-yl)-8-(1H-pyrazol-5-yl)-1,7-naphthyridin-4-yl]pyrimidin-2-amine], which IC50 is on record?
Its IC50 is 174 nM.

How did the IC50 turn out when c1cc(-c2nccc3c(-c4cc[nH]c4)cc(N4CCOCC4)nc23)[nH]n1 [Example 212, 2-(morpholin-4-yl)-8-(1H-pyrazol-5-yl)-4-(1H-pyrrol-3-yl)-1,7-naphthyridine] was run?
Its IC50 is over 20000 nM.

Same assay, conditions: tracer B, TR-FRET; read-out: ATR binding (tracer B) IC50

For CS(=O)(=O)c1ccc(-c2cc(N3CCOCC3)nc3c(-c4cc[nH]n4)nccc23)cc1 [Example 7, 4-(4-methanesulphonylphenyl)-2-(morpholin-4-yl)-8-(1H-pyrazol-3-yl)-[1,7]naphthyridine], which IC50 is on record?
Its IC50 is 26.5 nM.

CC(C)Oc1cc(N2CCOC[C@@H]2C)nc2c(-c3cc[nH]n3)nccc12 [Example 67, 4-isopropoxy-2-((S)-3-methylmorpholin-4-yl)-8-(1H-pyrazol-3-yl)-[1,7]naphthyridine] was tested. Which IC50 did it give?
The IC50 was 1270 nM.

How did the IC50 turn out when CS(=N)(=O)CCCOc1cc(N2CCOCC2)nc2c(-c3ccn[nH]3)nccc12 (centres unmarked) [Example 42, 4-[3-(S-methylsulfonimidoyl)propoxy]-2-(morpholin-4-yl)-8-(1H-pyrazol-5-yl)-1,7-naphthyridine] was run?
The IC50 was 533 nM.

Which IC50 does the source give for CS(=O)(=O)c1cccc(-c2cc(N3CCOCC3)nc3c(-c4cc[nH]n4)nccc23)c1 [Example 15, 4-(3-methanesulphonylphenyl)-2-(morpholin-4-yl)-8-(1H-pyrazol-3-yl)-[1,7]naphthyridine] here?
Its IC50 is 174 nM.
